In US20120101078A1, “AMIDE DERIVATIVES AS NEUROPEPTIDE Y5 RECEPTOR LIGANDS” (H. Lundbrck A/S, priority 2009, published 2012):
Blank lines part the entries; values can stand above or below the molecule they belong to.

Assays:
NPY Y5 receptor [1] = target: T1, NPY Y5 receptor (Homo sapiens, UniProt Q15761); test: Radioligand (125I-PYY) binding to membrane suspensions, cloned human NPY Y5 receptor; parameters: expressed in transfected cells; host or cells: LM(tk-) cells (typically); conditions: 125I-PYY competition, membranes of transfected LM(tk-) cells; read-out: Ki, binding affinity of selected compounds
T1 sequence (Q15761 1-445): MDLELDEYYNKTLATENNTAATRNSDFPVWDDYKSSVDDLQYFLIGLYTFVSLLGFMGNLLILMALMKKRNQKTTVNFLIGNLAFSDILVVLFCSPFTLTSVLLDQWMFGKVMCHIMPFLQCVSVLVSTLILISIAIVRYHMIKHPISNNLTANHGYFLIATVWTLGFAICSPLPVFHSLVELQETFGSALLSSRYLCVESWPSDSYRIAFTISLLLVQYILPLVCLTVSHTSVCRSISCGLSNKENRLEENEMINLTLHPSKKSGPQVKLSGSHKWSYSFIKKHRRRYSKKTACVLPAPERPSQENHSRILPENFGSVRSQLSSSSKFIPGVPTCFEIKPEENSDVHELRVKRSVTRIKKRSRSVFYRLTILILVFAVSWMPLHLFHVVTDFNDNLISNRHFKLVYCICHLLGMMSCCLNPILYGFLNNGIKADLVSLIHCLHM
Experimental: (§1) The pharmacological properties of the compounds of the present invention were evaluated at the cloned human NPY Y5 receptor using the protocols disclosed in U.S. Pat. No. 6,124,331, the contents of which are hereby incorporated by reference. The procedures for cell culture, transient transfection and membrane harvest, which are well known in the art, are described therein
Briefly, membrane suspensions from transfected cells (typically expressed in LM(tk-) cells) and ^125I-PYY radioligand (PerkinElmer, Waltham, Mass.) were diluted in binding buffer supplemented with 0.1% bovine serum albumin to yield an optimal membrane protein concentration so that ^125I-PYY bound by membranes in the assay was less than 10% of ^125I-PYY delivered to the sample (100,000 dpm/sample=0.08 nM for competition binding assays). Test compounds were diluted to desired concentrations with supplemented binding buffer in the presence of 30% DMSO. The binding assay was performed in 96-well polypropylene microtiter plates by mixing 125I-PYY test compound (25 μL), and finally, membrane suspensions (200 μL). Final DMSO=3%. Samples were incubated in at room temperature for about 120 min. Incubations were terminated by filtration over Whatman GF/C filters (pre-coated with 1% polyethyleneimine and air-dried before use), followed by washing with ice-cold binding buffer. Filter-trapped membranes were impregnated with MeltiLex solid scintillant (Wallac, Turku, Finland) and counted for ^125I-PYY in a Wallac MicroBeta Trilux. Non-specific binding was defined by 1000 nM porcine NPY. Specific binding was typically 80%; most non-specific binding was associated with the filter. Binding data were analyzed using nonlinear regression and statistical techniques available in the GraphPAD Prism package (San Diego, Calif.).

NPY Y5 receptor [2] = target: T1, NPY Y5 receptor; test: NPY Y5-dependent inhibition of forskolin-stimulated cAMP accumulation; type: cell-based; parameters: expressed in transfected cells; conditions: stably transfected cells, NPY then forskolin 10 uM, cAMP by HTRF
Experimental: as §1
Stably transfected cells were seeded into 96-well microtiter plates and cultured until confluent. To reduce the potential for receptor desensitization, the serum component of the media was reduced to 1.5% for 4 to 16 hours before the assay. Cells were washed in Hank's buffered saline, or HBS (150 mM NaCl, 20 mM HEPES, 1 mM CaCl2, 5 mM KCl, 1 mM MgCl2, and 10 mM glucose) supplemented with 0.1% bovine serum albumin plus 100 uM IBMX. […] The assay was then terminated and intracellular cAMP was quantified by with highthroughput time-resolved flourometry (HTRF kit from CisBio, Bedford, Mass.). The effect of the test compound on agonist (NPY) activity were analyzed using nonlinear regression and statistical techniques available in the GraphPAD Prism package (San Diego, Calif.). The compounds of Example 2a and 5b were determined to function as an antagonist at the NPY Y5 receptor.

Y5 receptor = target: T2, Y5 receptor (Rattus norvegicus, UniProt Q63634); conditions: increase elicited by i.c.v. injection of cPP(1-7), NPY(19-23),Ala31,Aib32, Gln34]; cited from earlier work
T2 construct: host or cells: animals in vivo (i.c.v. injection of Y5 agonist)
T2 sequence (Q63634 1-445): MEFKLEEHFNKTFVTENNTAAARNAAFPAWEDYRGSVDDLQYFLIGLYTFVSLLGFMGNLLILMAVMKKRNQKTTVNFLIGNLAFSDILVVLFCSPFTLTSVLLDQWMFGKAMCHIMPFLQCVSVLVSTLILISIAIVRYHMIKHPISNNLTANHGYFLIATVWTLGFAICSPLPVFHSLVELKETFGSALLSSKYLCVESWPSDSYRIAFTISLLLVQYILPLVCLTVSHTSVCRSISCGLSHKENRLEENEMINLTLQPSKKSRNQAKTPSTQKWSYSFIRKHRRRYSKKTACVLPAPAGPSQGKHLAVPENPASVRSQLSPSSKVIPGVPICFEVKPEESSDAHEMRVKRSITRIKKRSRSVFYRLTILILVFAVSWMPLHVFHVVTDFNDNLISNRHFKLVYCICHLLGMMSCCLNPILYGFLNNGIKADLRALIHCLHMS

Wistar rats = Wistar rats exposed to chronic mild stress, chronic dosing 3, 10 mg/kg/day, i.p.; cited from earlier work
Sprague Dawley rats = conditions: 3-30 mg/kg, p.o., acute or chronic treatment; cited from earlier work
[3] = test system: Flinders Sensitive Line rats; conditions: chronic dosing 10 mg/kg/day, i.p.; cited from earlier work
[4] = test system: Flinders Sensitive Line rats; conditions: chronic dosing 10 mg/kg/day, i.p.; cited from earlier work; remark: listed apart in the source

Compound: CN1CCCN([C@H]2CC[C@@H](C(=O)Nc3ccc(-c4cc(F)cc(F)c4)cn3)CC2)C1=O [Example 5a, cis-4-(3-Methyl-2-oxotetrahydro-pyrimidin-1-yl)-cyclohexanecarboxylic acid [5-(3,5-difluoro-phenyl)-pyridin-2-yl]-amide]
- Ki (NPY Y5 receptor [1]): 12 nM

Compound: O=C1NCCCN1[C@H]1CC[C@@H](C(=O)Nc2ccc(-c3cc(F)cc(F)c3)cn2)CC1 [Example 4a, cis-4-(2-Oxo-tetrahydro-pyrimidin-1-yl)-cyclohexanecarboxylic acid [5-(3,5-difluoro-phenyl)-pyridin-2-yl]-amide]
- Ki (NPY Y5 receptor [1]): 9 nM

Compound: CS(=O)(=O)NCC1CCC(Nc2nc3c(s2)CCSc2ccccc2-3)CC1 (stereo not drawn) [Lu AA33810]
- effect on increase in plasma ACTH (Y5 receptor): attenuated increases
- effect on increase in plasma cortisol (Y5 receptor): attenuated increases
- effect on stress-induced decrease in sucrose consumption (Wistar rats): antidepressant-like activity
- effect in social interaction test (Sprague Dawley rats): anxiolytic-like effects
- effect in forced swim test [3]: antidepressant-like effects
- effect in social interaction test [4]: anxiolytic-like effects

Compound: O=C1CCCN1[C@H]1CC[C@H](C(=O)Nc2ccc(-c3cc(F)cc(F)c3)cn2)CC1 [Example 1a, trans-4-(2-Oxo-pyrrolidin-1-yl)-cyclohexanecarboxylic acid [5-(3,5-difluoro-phenyl)-pyridin-2-yl]-amide]
- Ki (NPY Y5 receptor [1]): 720 nM

Next, values leading:

- Ki (NPY Y5 receptor [1]): 3.8 nM
- function at the NPY Y5 receptor (effect on NPY agonist activity) (NPY Y5 receptor [2]): antagonist
Compound: CN1CCN([C@H]2CC[C@@H](C(=O)Nc3ccc(-c4cc(F)cc(F)c4)cn3)CC2)C1=O [Example 5b, cis-4-(3-Methyl-2-oxo-imidazolidin-1-yl)-cyclohexanecarboxylic acid [5-(3,5-difluoro-phenyl)-pridin-2-yl]-amide]

- Ki (NPY Y5 receptor [1]): 6 nM
Compound: O=C1OCCCN1[C@H]1CC[C@@H](C(=O)Nc2ccc(-c3cc(F)cc(F)c3)cn2)CC1 [Example 3a, cis-4-(2-Oxo-perhydro-1,3-oxazin-3-yl)-cyclohexanecarboxylic acid [5-(3,5-difluoro-phenyl)-pyridin-2-yl]-amide]

- Ki (NPY Y5 receptor [1]): 8 nM
- function at the NPY Y5 receptor (effect on NPY agonist activity) (NPY Y5 receptor [2]): antagonist
Compound: O=C1OCCN1[C@H]1CC[C@@H](C(=O)Nc2ccc(-c3cc(F)cc(F)c3)cn2)CC1 [Example 2a, cis-4-(2-Oxo-oxazolidin-3-yl)-cyclohexanecarboxylic acid [5-(3,5-difluoro-phenyl)-pyridin-2-yl]-amide]

- Ki (NPY Y5 receptor [1]): 8 nM
Compound: O=C1COCCN1[C@H]1CC[C@@H](C(=O)Nc2ccc(-c3cc(F)cc(F)c3)cn2)CC1 [Example 6a, cis-4-(3-Oxo-morpholin-4-yl)-cyclohexanecarboxylic acid [5-(3,5-difluoro-phenyl)-pyridin-2-yl]-amide]
